These results are taken from patent US7026516B2 (priority 2000, dated 2006).

The target of one series is T1, serotonin transporter (Macaca mulatta, UniProt Q9MYX0).
T1 construct: Each caudate-putamen was homogenized and used separately for dopamine and serotonin transporter assays; from tissue; host or cells: caudate-putamen membranes of adult cynomolgus or rhesus monkey brain
Briefly: biochemical. The series is classed as binding. The method, then:
The affinities and transporter selectivities of the drugs were assessed in brain tissue of adult cynomolgus or rhesus monkey (Macaca fasicularis or Macaca Mulatta). Caudate-putamen was the source of the dopamine and serotonin transporters. The dopamine transporter affinity was measured with [3H]WIN 35,428 ([3H]CFT), the serotonin transporter was measured with [3H]citalopram and the norepinephrine transporter was measured with [3H]nisoxetine. Affinities of selected compounds were also measured at the human dopamine transporter in HEK-293 cells expressing the human dopamine transporter (hDAT).
Brain tissue was harvested from adult male and female cynomolgus (Macaca fasicularis) or rhesus (Macaca Mulatta) monkeys euthanized in the course of other research or after spontaneous death. Tissue was stored in the brain bank at the New England Regional Primate Research Center at −85° C. The caudate-putamen (approximately 1.5 g) was dissected from coronal sections of brain. Each caudate-putamen was homogenized and used separately for dopamine and serotonin transporter assays. Prior to homogenization, the thalamus from two brains was pooled and membranes were prepared as described previously for norepinephrine transporter assays (Madras et al., Synapse, 22:231–232, 1998; Madras et al., Synapse, 24:340–348, 1996). Briefly, the tissue was homogenized in 10 volumes (w/v) of ice-cold Tris.HCl buffer (50 mM, pH 7.4 at 0–4° C.) and centrifuged at 38,700×g for 20 min in the cold. The resulting pellet was resuspended in 40 volumes of buffer, and the entire wash procedure was repeated twice. The membrane suspension (25 mg original wet weight of tissue/ml) was diluted to 12 mg/ml in buffer just prior to assay and dispersed with a Brinkmanm polytron (setting #5) for 15 sec. […] All experiments were conducted in triplicate and each experiment was repeated in 2–4 individual tissue preparations.
The serotonin transporter was assayed in caudate-putamen membranes using similar assay conditions as for the dopamine transporter. […] The affinity of drugs for the serotonin transporter labeled by [^3H]citalopram (spec. act.: approximately 85 Ci/mmol, NEN) was determined in experiments by incubating tissue with a fixed concentration of [^3H]citalopram and a range of concentrations of drug. Assays were conducted in Tris-HCl buffer containing NaCl (100 mM) and the following constituents: [^3 H]citalopram (1 nM, 0.2 ml), test drug (1 pM–100 TM, 0.2 ml) and tissue (0.2 ml, 3 mg/ml original wet tissue weight). The 2 h incubation (0–4° C.) was initiated by addition of membranes and terminated by rapid filtration over Whatman GF/B glass fiber filters pre-soaked 1 hour in 0.1% polyethyleneimine. The filters were washed three times with 5 ml Tris.HCl buffer (50 mM), and the remaining steps were carried out as described above. Total binding was defined as [^3H]citalopram bound in the presence of ineffective concentrations of unlabeled citalopram (1 pM) or the test compounds. Non-specific binding was defined as [^3H]citalopram bound in the presence of an excess (10 TM) of fluoxetine. Specific binding was the difference between the two values. Cpm were converted to dpm following determination of counting efficiency (>45%) of each vial by external standardization.
Data were analyzed by the EBDA and LIGAND computer software programs (ElsevierBiosoft, U.K.) Final estimates of IC50 and nH values were computed by the EBDA program. Baseline values for the individual drugs were established by computer analysis, using the baseline drugs as a guide. The LIGAND program provided final parameter estimates for the affinity of the radioligand (Kd) by iterative non-linear curve-fitting and evaluation of one- or two-component binding models. LIGAND was used to measure the affinity of the radioligands at the dopamine and serotonin transporter. Graphs (not shown) were produced by the computer software program PRISM, using a one- or two-site competition analysis curve.

In the next series the target is T2, dopamine transporter (Macaca fascicularis, UniProt Q9GJT6).
T2 construct: Each caudate-putamen was homogenized and used separately for dopamine and serotonin transporter assays; from tissue; host or cells: caudate-putamen membranes of adult cynomolgus or rhesus monkey brain
T2 sequence (Q9GJT6 whole entry): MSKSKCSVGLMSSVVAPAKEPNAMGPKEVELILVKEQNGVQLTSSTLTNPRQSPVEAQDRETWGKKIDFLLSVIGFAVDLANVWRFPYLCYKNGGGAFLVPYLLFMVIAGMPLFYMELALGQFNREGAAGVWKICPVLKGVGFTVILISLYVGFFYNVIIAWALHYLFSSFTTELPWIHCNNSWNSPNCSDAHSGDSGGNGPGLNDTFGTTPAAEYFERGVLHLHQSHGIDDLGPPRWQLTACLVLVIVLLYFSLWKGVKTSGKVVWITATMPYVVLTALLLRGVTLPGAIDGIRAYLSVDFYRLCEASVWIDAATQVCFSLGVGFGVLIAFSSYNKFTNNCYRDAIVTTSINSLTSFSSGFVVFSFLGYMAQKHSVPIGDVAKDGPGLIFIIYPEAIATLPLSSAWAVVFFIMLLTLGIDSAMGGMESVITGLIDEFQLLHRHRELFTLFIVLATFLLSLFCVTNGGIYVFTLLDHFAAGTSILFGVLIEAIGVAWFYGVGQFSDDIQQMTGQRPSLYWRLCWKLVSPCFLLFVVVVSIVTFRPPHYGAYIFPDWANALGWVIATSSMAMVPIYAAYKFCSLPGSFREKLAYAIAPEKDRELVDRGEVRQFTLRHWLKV
Briefly: Inhibition of [3H]WIN 35,428 binding to the dopamine transporter in monkey caudate-putamen.

The mark [1] stands for this setting: Table 2, affinity at the serotonin transporter, read-out: SERT IC50.
The mark [2] stands for this setting: Table 2, affinity at the dopamine transporter, read-out: DAT IC50.
Where [3] appears, read: Table 2, ratio of SERT and DAT IC50 values.
Setting [4] is: Table 1, [3H]citalopram, monkey caudate-putamen, mean of 3 or more experiments, read-out: SERT IC50.
The mark [5] stands for this setting: read-out: IC50, binding potency at the DAT.
Setting [6] is: Table 1, [3H]WIN 35,428, monkey caudate-putamen, mean of 3 or more experiments, read-out: DAT IC50.

Where two headings read alike, the source gives them in different places. A value given as a limit tells only on which side of the number the result lay.

T1 sequence (Q9MYX0 whole entry): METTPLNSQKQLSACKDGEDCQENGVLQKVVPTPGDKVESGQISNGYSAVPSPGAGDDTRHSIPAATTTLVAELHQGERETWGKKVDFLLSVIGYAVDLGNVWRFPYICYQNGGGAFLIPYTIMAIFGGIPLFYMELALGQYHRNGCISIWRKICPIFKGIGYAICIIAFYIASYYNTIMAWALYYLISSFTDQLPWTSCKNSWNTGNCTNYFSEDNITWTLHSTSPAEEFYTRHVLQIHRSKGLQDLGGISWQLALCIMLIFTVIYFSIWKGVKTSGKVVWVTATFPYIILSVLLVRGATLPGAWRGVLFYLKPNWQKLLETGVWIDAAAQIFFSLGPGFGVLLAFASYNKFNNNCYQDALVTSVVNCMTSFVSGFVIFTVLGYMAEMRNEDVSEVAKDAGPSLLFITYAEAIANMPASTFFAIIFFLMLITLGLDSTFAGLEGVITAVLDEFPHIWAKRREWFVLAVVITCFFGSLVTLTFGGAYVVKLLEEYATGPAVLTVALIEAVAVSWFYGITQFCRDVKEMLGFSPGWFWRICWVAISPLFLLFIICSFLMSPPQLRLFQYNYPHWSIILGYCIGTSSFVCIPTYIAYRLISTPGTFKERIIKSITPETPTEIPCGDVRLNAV

With `COC(=O)C(c1ccc(Cl)c(Cl)c1)C1CCCCO1` (centres unmarked) [Compound 0-1731, 2-(3,4-Dichlorophenyl)tetrahydropyran-2-yl acetic acid methyl esters], the results for the half-maximal inhibitory concentration (IC50) at serotonin transporter (setting [1]) and at dopamine transporter (setting [2]) were 7800 nM and 286 ± 10.5 nM, respectively.

With `O=C(O)[C@H](c1ccc(Cl)c(Cl)c1)[C@H]1CCCCO1`, the melting point is 139.1 to 140.1 °C.

Turning to `CO[C@@H]1C[C@@H](c2ccc3ccccc3c2)c2ccccc21` (relative stereo) [Compound 0-1925, Trans-1-Methoxy-3-(2-naphthyl)indans], the values for the half-inhibitory concentration (IC50) on serotonin transporter (setting [1]) and on dopamine transporter (setting [2]) were 136 ± 4.5 nM and 213 ± 27 nM, respectively. Moreover, the “DAT/SERT RATIO” value at dopamine transporter (setting [3]) was determined as 0.6.

With `O=C(O)[C@H](c1ccc(Cl)c(Cl)c1)C1CCCCO1` (some centres unmarked), the melting point is 124.1 to 125.1 °C.

Turning to `COC(=O)[C@H](c1ccc(Cl)c(Cl)c1)[C@H]1CCCCO1` [Compound O-1783], the 50% inhibitory concentration (IC50) was greater than 10000 nM at serotonin transporter (setting [4]), greater than 10000 nM on serotonin transporter (setting [1]) and 17 ± 1.3 nM at dopamine transporter.

Regarding `COC(=O)[C@@H](c1ccc(Cl)c(Cl)c1)[C@H]1CCCCO1` [Compound O-1793, 2S-(3,4-Dichlorophenyl)tetrahydropyran-2′R-yl acetic acid methyl ester], the IC50 on serotonin transporter (setting [4]) and at serotonin transporter (setting [1]) was greater than 10000 nM throughout.

Consider `CO[C@@H]1C[C@H](c2ccc3ccccc3c2)c2ccccc21` (relative stereo) [Compound 0-1833, Cis-3-(2-Naphthyl)-0-methylindanol], for which the concentration for half-maximal inhibition (IC50) on serotonin transporter (setting [1]) is 422 ± 38 nM; at dopamine transporter (setting [2]), 189 ± 12 nM. Also, the “DAT/SERT RATIO” value on dopamine transporter (setting [3]) came out at 2.

Take `CO[C@@H]1C[C@H](c2ccc(Cl)c(Cl)c2)c2ccccc21` (relative stereo) [Compound 0-1617, Cis-1-Methoxy-3-(3,4-dichlorophenyl)indans]: the values for the IC50 at serotonin transporter (setting [1]) and on dopamine transporter (setting [2]) were greater than 4100 nM and 130 ± 49.7 nM, respectively. In addition, the “DAT/SERT RATIO” value on dopamine transporter (setting [3]) is on record as greater than 32.

Turning to `COC(=O)[C@@H](c1ccc(Cl)c(Cl)c1)[C@@H]1CCCCO1` [Compound O-1794, 2S-(3,4-Dichlorophenyl)tetrahydropyran-2′S-yl acetic acid methyl ester], the values for the 50% inhibitory concentration (IC50) on serotonin transporter (setting [4]) and on dopamine transporter were 1660 nM and 33.9 ± 8.6 nM, respectively.

In the case of `N#CC(c1ccc(Cl)c(Cl)c1)C1CCCCC1` (stereo not drawn) [Compound 8, α-cyclohexyl-3,4-dichlorobenzylcyanide], the IC50 was 8000 nM at serotonin transporter (setting [4]); 8000 nM on serotonin transporter (setting [1]); 8000 to 12000 nM at serotonin transporter (read-out: IC50, binding potency at the SERT); 127 nM on dopamine transporter (setting [2]); 127 to 146 nM on dopamine transporter (setting [5]). Further, the “DAT/SERT RATIO” value on dopamine transporter (setting [3]) amounted to 63.

Consider `CO[C@@H]1C[C@@H](c2ccc(Cl)c(Cl)c2)c2ccccc21` (relative stereo) [Compound 0-1630, Trans-1-Methoxy-3-(3,4-dichlorophenyl)indans], for which the IC50 at serotonin transporter (setting [1]) stood at 334 ± 100 nM; at dopamine transporter (setting [2]), 60 ± 23 nM. Besides, at dopamine transporter (setting [3]), the “DAT/SERT RATIO” value came out at 6.

As to `COC(=O)C(c1ccc2ccccc2c1)C1CCCCO1` (centres unmarked) [Naphthyl mixture, (2-Naphthyl)-(tetrahydropyran-2-yl) acetic acid methyl esters], the concentration for half-maximal inhibition (IC50) at serotonin transporter (setting [4]) was found to be 5000 nM; on serotonin transporter (setting [1]), 5000 nM; on serotonin transporter (binding to the SERT, read-out: SERT IC50), 5000 nM; at dopamine transporter (setting [6]), 300 nM; at dopamine transporter (setting [2]) it was 300 nM; at dopamine transporter (binding to the DAT, read-out: DAT IC50), 300 nM. Further, the IC50 on dopamine transporter (setting [5]) stood at 300 nM. The “DAT/SERT RATIO” value on dopamine transporter (setting [3]) is reported as 16.7.

Turning to `COC(=O)[C@H](c1ccc(Cl)c(Cl)c1)[C@@H]1CCCCO1` [Compound O-1792, 2R-(3,4-Dichlorophenyl)tetrahydropyran-2′S-yl acetic acid methyl ester], the half-maximal inhibitory concentration (IC50) on serotonin transporter (setting [4]) and at serotonin transporter (setting [1]) was greater than 10000 nM throughout.

As for `N#CC(c1ccc(Cl)c(Cl)c1)C1CCCC1` (stereo not drawn) [Compound 10, α-cyclopentyl-3,4-dichlorobenzylcyanide], the half-maximal inhibitory concentration (IC50) at dopamine transporter (setting [6]) and at dopamine transporter (setting [2]) was 128 nM throughout. The “DAT/SERT RATIO” value on dopamine transporter (setting [3]) worked out at 78.

`O=C(O)C(c1ccc(Cl)c(Cl)c1)C1CCCCO1` (centres unmarked) came in with a melting point of 138.9 to 139.9 °C.

Regarding `COC(=O)C(c1ccc(Cl)c(Cl)c1)C1CCCCO1` (centres unmarked) [Compound 0-1730, 2-(3,4-Dichlorophenyl)tetrahydropyran-2-yl acetic acid methyl esters], the 50% inhibitory concentration (IC50) at serotonin transporter (setting [1]) came out at 2180 nM.

On to `COC(=O)C(c1ccccc1)C1CCCCN1` (centres unmarked) [Methylphenidate, reference compound], for which the half-maximal inhibitory concentration (IC50) at serotonin transporter is greater than 100000 nM. For the same molecule, on dopamine transporter, the “DAT/SERT RATIO” value was 5,800 and the IC50 came to 17.2 ± 2.04 nM.

The term IC50 denotes the concentration that inhibits the measured activity by half. What is called melting point is the temperature, or range, at which the solid turns liquid.
